For one assay, the target named is T1, BRD4-BD12 (Homo sapiens, UniProt O60885).
T1 construct: dual bromodomains (BRD4-BD12 (1-477), BRD4-BD12 (1-472)); six-His tag (N); made in house; host or cells: E. coli BL21-CodonPlus (DE3)
Description: Alphascreen binding assay, BRD4(1 2) H4. Conditions: BRD4 dual bromodomains with acetylated Histone 4 peptide, read-out: Biochemical activity (IC50 μM) BRD4(1 2) H4. As for the experimental part: Binding of compounds of formula (I) with bromodomain 2, 3 4 was assessed using Alphascreen binding assay. The inhibition of the interaction between bromodomain and its acetylated target protein (Filippakopoulos P et al. 2012) was measured quantitatively using recombinant BRD proteins, an acetylated Histone 4 peptide and AlphaScreen™ technology. In absence of inhibition the BRD protein bound to AlphaScreen™ nickel chelate acceptor beads can interact with the acetylated Histone 4 peptide which is immobilized by the AlphaScreen™ Streptavidin coated beads. This interaction brings donor and acceptor beads in proximity. The close proximity allows the singlet oxygen produced by laser excitation of the donor beads to reach the acceptor beads and generate a luminescence signal. BRD inhibitors result in a decrease in the proximity signal through an inhibition of the BRD acetylated peptide interaction.
Recombinant human bromodomains containing the N-terminal bromodomain (BRD2-BD1 (71-194), BRD3-BD1 (24-144) and BRD4-BD1 (44-164)) or dual bromodomains (BRD4-BD12 (1-477), BRD4-BD12 (1-472)) were prepared and purified as described in protein expression and purification session. The peptide is human Histone H41-21K5AcK8AcK12AcK16Ac-Biotin (Anaspec Calif., USA).
Protocol for BRD2, BRD3 and BRD4 assay: All components are prepared in buffer composed of 50 mM HEPES pH 7.5, 100 mM NaCl, 0.01% BSA, 0.01% Triton X-100, 2 mM DTT. 7 μL of Bromodomain protein and 7 μL of peptide are added to wells containing 1 μL of various concentrations of test compounds of formula (I) or DMSO vehicle in an Alphaplate (PerkinElmer Ga., USA) and incubated for 1 hour at room temperature. 4 μL donor and acceptor bead mixture is then added with final concentrations of 7.5 μg/ml. 30 minutes after bead addition, Alpha signal is read on the Envision spectrometer (λEx 680 nm, λEm 520-620 nm). Final concentrations of bromodomain proteins and peptide are as shown below.
All data was normalized to the mean of 16 high and 16 low control wells on each plate. A four parameter curve fit of the following formula was then applied: Y=a+(b−a)/(1+(x/c)^d) Where ‘a’ is the minimum, ‘b’ is the maximum, ‘c’ is the pIC50 and ‘d’ is the Hill slope. Protein Expression and Purification
Recombinant human bromodomains containing the N-terminal bromodomain (BRD2-BD1 (71-194), BRD3-BD1 (24-144) and BRD4-BD1 (44-164)) or dual bromodomains (BRD4-BD12 (1-477), BRD4-BD12 (1-472)) were expressed in E. coli cells (in a modified pET vector) with an N-terminal six-His tag and purified using a combination of both IMAC (Ni-affinity) and size exclusion chromatography steps.
Recombinant BRD proteins were expressed using the E. coli strain BL21-CodonPlus (DE3) (Agilent Technologies CA, USA). Cells were grown in Terrific Broth (TB) media to an OD600 of 1.2 at 37° C. at which temperature was reduced to 25° C., protein was induced with 1.0 mM IPTG for 12-18 hours and harvested by centrifugation at 8000×g for 20 minutes. Cells were re-suspended in 0.1M KPO4 pH 8.0, 250 mM NaCl, 10% Glycerol, 0.75% NP-40, 25 mM Imidazole, 5 mM BME with 0.2 mg/ml Lysosyme, 2.0 mM PMSF, 25 μg/ml DNAse I, incubated on ice for 30 minutes and lyzed with a cell disruptor (MicroFluidics MA, USA). The lysate was clarified by centrifugation at 20,000×g for 2 hours. The protein was captured with Ni-NTA resin (Life Technologies, USA). Contaminating proteins were washed off with 25 mM Tris-HCl pH 8.3, 250 mM NaCl, 12% Glycerol and 50 mM Imidazole. Following 3× wash steps, protein was eluted step wise using a 50 mM HEPES pH 7.5, 500 mM NaCl and 400 mM Imidazole. The protein was further purified using Gel Filtration column 26/600 Superdex 200 (GE Biosciences N.J., USA) in 50 mM HEPES pH 7.5, 250 mM NaCl. The protein was aliquoted and flash-frozen in liquid Nitrogen.

The subject of another assay is MV-4-11. Description: Oncology cell growth assay, MV-4-11 3 d growth. Format: cell-based. Conditions: Homo sapiens, MV4-11; MV-4-11 cells, 72 hours, CellTiter Glo; read-out: Cell activity (IC50 μM) MV-4-11 3 d-Growtb. As for the experimental part: (§1) In this study, we test compounds in different cancer cell lines. MV-4-11 and MOLM-13 are AML cell lines harboring a MLL-AF4 and MLL-AF9 translocation, respectively. MM.1S is a multiple myeloma cell line. SK—N-AS, IMR-32 and SK-N-BE(2) are neuroblastoma cell lines. IMR-32 and SK-N-BE(2) cell lines harbor MYCN amplifications.
(§2) MV-4-11, MM.1S, IMR-32, SK-N-AS and SK-N-BE(2) were obtained from ATCC (IL, USA) and MOLM-13 were purchased from DSMZ (Braunschweig, German). Cells are cultured as recommended by their sources. For growth inhibition studies 3000 cells are seeded in wells of a 96-well plate in 75 μL of culture media. After several hours, growth media containing compounds of formula (I) are added to the wells. Compound at a maximal concentration of 5 mM was serially diluted 1:3 for a total of 8 point titration with DMSO as a control. A 1 μL aliquot of each dilution point is added to 249 μL growth media and 75 μL is added to each well containing cells, providing 10 μM compound at the maximum concentration point. The final concentration of DMSO in all wells is 0.2%. Cells are incubated for 72 hours, and 25 μL of CellTiter Glo Reagent (Promega Ga., USA) is added to each well. Plates are shaken for approximately 10 minutes and chemiluminescent signal is read on Tecan microplate reader. The measured luminescence correlates directly with cell number.
(§3) All data is normalized to the mean of eight DMSO high control wells on each plate. A four parameter curve fit of the following formula was then applied: Y=a+(b−a)/(1+(x/c)^d) Where ‘a’ is the minimum, ‘b’ is the maximum, ‘c’ is the pIC50 and ‘d’ is the Hill slope. […] Myc Reporter Assay

Assay [1] concerns cancer cell lines / MV-4-11 Myc reporter cell line. Nature of the assay: Bromodomain cell assays of Example 8 (at least one of them). Conditions: Homo sapiens, MV4-11; at least one of the bromodomain cell assays described in Example 8. The class given is cell-based. As for the experimental part: as §1, §2, §3
In MV-4-11 cells, BRD2, BRD3 and BRD4 bind to the promoter region of MYC and regulate its transcription (Dawson M A et al. 2011). The literature bromodomain inhibitor iBET 151 could disrupt BRD4 recruitment to the MYC promoter and subsequently downregulate c-myc transcription (Dawson M A et al. 2011). Myc protein is a transcription factor that heterodimerizes with an obligatory partner Max and regulates the transcription of genes important for cell proliferation, differentiation, and apoptosis. This Myc reporter assay is used to monitor the inhibitory effect of compound of formula (I) on Myc dependent gene expression. Effective compounds could have potential therapeutic effects in Myc-driven tumors.
The MV-4-11 Myc reporter cell line is established by infecting MV-4-11 with VSV-g pseudotyped lentivirus expressing the firefly luciferase gene under the control of a minimal (m) CMV promoter and tandem repeats of the E-box transcriptional response element (TRE) (Qiagen IL, USA) and selecting cells in 2.5 μg/ml Puromycin.
The MV-4-11 Myc reporter cell line is maintained in Iscove's Modified Dulbecco's Medium containing 10% FBS, 1% PenStep and 2.5 μg/ml Puromycin. Cells are incubated at 37° C. in a humidified atmosphere with 5% CO2. 25,000 cells are seeded in 96-well plate in 50 μL of culture media. After several hours, growth media containing 2× compounds are added to the wells. Compound at a maximal concentration of 5 mM is serially diluted 1:3 for a total of 8 point titration. A 1 μl aliquot of each dilution point is added to 249 μl growth media and 50 μl is added to each well containing cells, providing 10 μM compound at the maximum concentration point. DMSO treated cells serve as a high control and 10 μM JQ1 treated cells serve as a low control. Cells are incubated for a further 24 hours and 25 μL of CellTiter-Fluo Reagent (Promega Ga., USA) is added to each well. Plates are shaken for approximately 2 minutes and incubated at 37° C. for 0.5 hour. Fluorescence signal is read in a Tecan Plate reader (λex=400 nm, λcm=505 nm). 25 μL of One-Glo Reagent (Promega Ga., USA) is then added to the plates. Chemiluminescent signal is read on Tecan plate reader. Values from the wells with no cells are subtracted from all samples for background correction. […]

The structures appear in SMILES notation.

Take `Cc1noc(C)c1-c1ccc2c(-c3cnn(C)c3)nn(CC3CCC(F)(F)CC3)c2c1` [Compound P-2001, 4-[1-[(4,4-difluorocyclohexyl)methyl]-3-(1-methylpyrazol-4-yl)indazol-6-yl]-3,5-dimethyl-isoxazole]: the IC50 was ≤ 1 µM at BRD4-BD12, ≤ 1 µM in the assay on MV-4-11 and < 10 µM in assay [1].
For the molecule `Cc1noc(C)c1-c1ccc2c(-c3cnn(CC(F)(F)F)c3)nn(CC3CCC(F)(F)CC3)c2c1` [Compound P-2002, 4-[1-[(4,4-difluorocyclohexyl)methyl]-3-[1-(2,2,2-trifluoroethyl)pyrazol-4-yl]indazol-6-yl]-3,5-dimethyl-isoxazole], the IC50 was ≤ 1 µM on BRD4-BD12, ≤ 1 µM with MV-4-11 and < 10 µM in assay [1].
On to `Cc1noc(C)c1-c1ccc2c(I)nn(C(c3ccccc3)c3ccccn3)c2c1` (stereo not drawn) [Compound P-2003, 4-[3-iodo-1-[phenyl(2-pyridyl)methyl]indazol-6-yl]-3,5-dimethyl-isoxazole], for which the IC50 at BRD4-BD12 is ≤ 1 µM; with MV-4-11 it was ≤ 1 µM; in assay [1], < 10 µM.
On to `Cc1noc(C)c1-c1ccc2c(-c3cnn(C)c3)nn(C(c3ccccc3)c3ccccn3)c2c1` (stereo not drawn) [Compound P-2004, 3,5-dimethyl-4-[3-(1-methylpyrazol-4-yl)-1-[phenyl(2-pyridyl)methyl]indazol-6-yl]isoxazole], for which the IC50 at BRD4-BD12 is ≤ 1 µM; in the assay with MV-4-11 it was ≤ 1 µM; in assay [1], < 10 µM.
For `Cc1noc(C)c1-c1ccc2c(-c3cnn(CC(F)(F)F)c3)nn(C(c3ccccc3)c3ccccn3)c2c1` (stereo not drawn) [Compound P-2005, 3,5-dimethyl-4-[1-[phenyl(2-pyridyl)methyl]-3-[1-(2,2,2-trifluoroethyl)pyrazol-4-yl]indazol-6-yl]isoxazole], the values for the IC50 (at BRD4-BD12; in the assay on MV-4-11; in assay [1]) were ≤ 1 µM, ≤ 1 µM and < 10 µM, respectively.
`COC(=O)c1ccc(-c2nn(C(c3ccccc3)c3ccccn3)c3cc(-c4c(C)noc4C)ccc23)cc1` (stereo not drawn) [Compound P-2006, methyl 4-[6-(3,5-dimethylisoxazol-4-yl)-1-[phenyl(2-pyridyl)methyl]indazol-3-yl]benzoate]: the IC50 was ≤ 1 µM on BRD4-BD12, ≤ 1 µM in the assay on MV-4-11 and < 10 µM in assay [1].
On to `Cc1noc(C)c1-c1ccc2c(-c3ccc(C(=O)O)cc3)nn(C(c3ccccc3)c3ccccn3)c2c1` (stereo not drawn) [Compound P-2007, 4-[6-(3,5-dimethylisoxazol-4-yl)-1-[phenyl(2-pyridyl)methyl]indazol-3-yl]benzoic acid], for which the values for the IC50 (at BRD4-BD12; with MV-4-11; in assay [1]) were ≤ 1 µM, ≤ 1 µM and < 10 µM, respectively.
`COC(=O)Cc1ccc(-c2nn(C(c3ccccc3)c3ccccn3)c3cc(-c4c(C)noc4C)ccc23)cc1` (stereo not drawn) [Compound P-2008, methyl 2-[4-[6-(3,5-dimethylisoxazol-4-yl)-1-[phenyl(2-pyridyl)methyl]indazol-3-yl]phenyl]acetate]: the results for the 50% inhibitory concentration (IC50) (at BRD4-BD12; in the assay on MV-4-11; in assay [1]) were ≤ 1 µM, ≤ 1 µM and < 10 µM, respectively.
Regarding `Cc1noc(C)c1-c1ccc2c(-c3ccc(CC(=O)O)cc3)nn(C(c3ccccc3)c3ccccn3)c2c1` (stereo not drawn) [Compound P-2009, 2-[4-[6-(3,5-dimethylisoxazol-4-yl)-1-[phenyl(2-pyridyl)methyl]indazol-3-yl]phenyl]acetic acid], the half-inhibitory concentration (IC50) on BRD4-BD12 was ≤ 1 µM; in the assay on MV-4-11, ≤ 1 µM; in assay [1] it was < 10 µM.
For the molecule `Cc1noc(C)c1-c1ccc2c(I)nn([C@@H](C)c3ccccn3)c2c1` [Compound P-2010, 4-[3-iodo-1-[(1S)-1-(2-pyridyl)ethyl]indazol-6-yl]-3,5-dimethyl-isoxazole], the IC50 at BRD4-BD12 is ≤ 1 µM; with MV-4-11, ≤ 1 µM; in assay [1], < 10 µM.
For the molecule `COC(=O)c1ccc(-c2nn([C@@H](C)c3ccccn3)c3cc(-c4c(C)noc4C)ccc23)cc1` [Compound P-2011, methyl 4-[6-(3,5-dimethylisoxazol-4-yl)-1-[(1S)-1-(2-pyridyl)ethyl]indazol-3-yl]benzoate], the half-maximal inhibitory concentration (IC50) at BRD4-BD12 was ≤ 1 µM; with MV-4-11 it was ≤ 1 µM; in assay [1], < 10 µM.

The values above are taken from patent publication US9856259B2, “Heterocyclic compounds and uses thereof” (Plexxikon Inc., priority 2014, dated 2018).
